The source of these data is ChEMBL document CHEMBL5465560, “Selectivity Literature for EUbOPEN Chemogenomic Library” (2024).

Assay [1] has as its target Mitogen-activated protein kinase kinase kinase 14 (Homo sapiens) (UniProt Q99558). The assay is described as follows: Selectivity interaction (KinomeScan (DiscoverX)) EUB0001049a MAP3K14. To be noted: at 1 µM.
In assay [2] the target is Serine/threonine-protein kinase NIM1 (Homo sapiens, UniProt Q8IY84). The assay is described as follows: Selectivity interaction (KinomeScan (DiscoverX)) EUB0000695a NIM1K. Conditions: at 100 nM.
Serine/threonine-protein kinase NIM1, sequence (Q8IY84 whole entry): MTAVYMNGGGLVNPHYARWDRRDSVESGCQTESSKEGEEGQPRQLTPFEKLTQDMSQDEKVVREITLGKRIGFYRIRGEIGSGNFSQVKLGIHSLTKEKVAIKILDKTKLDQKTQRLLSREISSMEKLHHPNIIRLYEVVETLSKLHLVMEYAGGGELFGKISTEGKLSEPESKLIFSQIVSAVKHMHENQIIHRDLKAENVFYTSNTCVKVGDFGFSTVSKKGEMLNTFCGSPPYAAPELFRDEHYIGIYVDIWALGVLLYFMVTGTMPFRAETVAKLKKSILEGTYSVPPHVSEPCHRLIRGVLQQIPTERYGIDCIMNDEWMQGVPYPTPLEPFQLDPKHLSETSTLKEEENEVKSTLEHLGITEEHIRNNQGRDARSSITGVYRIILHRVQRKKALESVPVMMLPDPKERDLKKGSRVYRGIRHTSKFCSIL
The target of assay [3] is Histone-lysine N-methyltransferase, H3 lysine-79 specific (Homo sapiens, UniProt Q8TEK3). Kind of assay: Selectivity interaction (Methyltransferase screen (radiometric assays, panel of 8 PRMTs, 21 protein lysine methyltransferases, 3 DNA methyltransferases, and one RNA methyltransferase)) EUB0000271b DOT1L.
Histone-lysine N-methyltransferase, H3 lysine-79 specific, sequence (Q8TEK3 whole entry, looked up): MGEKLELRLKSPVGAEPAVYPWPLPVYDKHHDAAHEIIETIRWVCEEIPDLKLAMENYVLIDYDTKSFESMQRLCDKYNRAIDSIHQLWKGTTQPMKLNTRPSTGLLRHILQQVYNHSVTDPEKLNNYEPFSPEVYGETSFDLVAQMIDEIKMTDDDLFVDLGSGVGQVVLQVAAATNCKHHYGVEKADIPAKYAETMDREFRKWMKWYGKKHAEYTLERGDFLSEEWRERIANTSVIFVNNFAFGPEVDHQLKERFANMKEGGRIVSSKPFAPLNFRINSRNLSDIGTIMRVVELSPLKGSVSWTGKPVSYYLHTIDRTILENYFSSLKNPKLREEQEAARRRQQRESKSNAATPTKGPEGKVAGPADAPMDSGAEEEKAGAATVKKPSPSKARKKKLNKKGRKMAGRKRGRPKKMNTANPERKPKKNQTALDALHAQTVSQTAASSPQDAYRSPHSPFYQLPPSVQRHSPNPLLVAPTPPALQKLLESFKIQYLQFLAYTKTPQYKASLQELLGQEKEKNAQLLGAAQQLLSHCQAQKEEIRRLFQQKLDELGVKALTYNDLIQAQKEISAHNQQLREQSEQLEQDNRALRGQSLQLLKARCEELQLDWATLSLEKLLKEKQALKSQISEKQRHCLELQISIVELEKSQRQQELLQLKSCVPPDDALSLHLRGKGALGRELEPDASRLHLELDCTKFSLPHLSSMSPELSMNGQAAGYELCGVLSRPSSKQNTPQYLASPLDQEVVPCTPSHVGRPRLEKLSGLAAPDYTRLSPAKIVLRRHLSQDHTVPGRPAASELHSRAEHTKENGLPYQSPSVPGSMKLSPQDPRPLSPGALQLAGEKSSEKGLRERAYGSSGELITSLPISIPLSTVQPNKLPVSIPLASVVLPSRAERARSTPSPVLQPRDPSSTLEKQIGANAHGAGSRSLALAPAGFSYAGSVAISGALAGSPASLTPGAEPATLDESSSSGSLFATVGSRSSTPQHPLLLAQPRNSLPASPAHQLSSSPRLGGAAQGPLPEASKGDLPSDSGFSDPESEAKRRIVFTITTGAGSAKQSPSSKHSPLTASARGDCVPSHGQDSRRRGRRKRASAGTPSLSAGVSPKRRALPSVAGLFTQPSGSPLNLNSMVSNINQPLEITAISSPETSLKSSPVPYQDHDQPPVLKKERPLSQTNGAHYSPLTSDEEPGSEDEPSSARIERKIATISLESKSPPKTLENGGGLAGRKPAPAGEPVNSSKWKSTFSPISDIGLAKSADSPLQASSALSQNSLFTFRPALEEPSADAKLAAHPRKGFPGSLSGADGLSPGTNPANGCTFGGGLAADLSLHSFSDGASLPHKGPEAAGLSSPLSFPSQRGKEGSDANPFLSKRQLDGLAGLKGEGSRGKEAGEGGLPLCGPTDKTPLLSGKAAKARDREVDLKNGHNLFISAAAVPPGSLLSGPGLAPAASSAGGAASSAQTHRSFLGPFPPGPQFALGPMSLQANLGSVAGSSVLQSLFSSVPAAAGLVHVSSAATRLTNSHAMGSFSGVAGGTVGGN
For a further assay, the target named is Aurora kinase B (Homo sapiens, UniProt Q96GD4). The assay is described as follows: Selectivity interaction (KinomeScan (DiscoverX)) EUB0000666a AURKB. Conditions: at 10 µM.
Aurora kinase B, sequence (Q96GD4 whole entry): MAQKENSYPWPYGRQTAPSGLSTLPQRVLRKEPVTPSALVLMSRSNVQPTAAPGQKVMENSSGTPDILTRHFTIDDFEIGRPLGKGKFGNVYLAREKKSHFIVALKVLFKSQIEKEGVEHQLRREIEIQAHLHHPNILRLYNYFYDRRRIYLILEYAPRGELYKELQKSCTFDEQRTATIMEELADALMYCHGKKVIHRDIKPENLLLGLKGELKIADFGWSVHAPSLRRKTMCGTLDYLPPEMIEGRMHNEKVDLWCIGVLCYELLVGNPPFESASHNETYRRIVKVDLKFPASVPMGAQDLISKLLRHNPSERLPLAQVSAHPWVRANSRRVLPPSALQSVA
Assay [4] concerns the target T1, Serine/threonine-protein kinase Nek1 (Homo sapiens) (UniProt Q96PY6).
T1 sequence (whole entry): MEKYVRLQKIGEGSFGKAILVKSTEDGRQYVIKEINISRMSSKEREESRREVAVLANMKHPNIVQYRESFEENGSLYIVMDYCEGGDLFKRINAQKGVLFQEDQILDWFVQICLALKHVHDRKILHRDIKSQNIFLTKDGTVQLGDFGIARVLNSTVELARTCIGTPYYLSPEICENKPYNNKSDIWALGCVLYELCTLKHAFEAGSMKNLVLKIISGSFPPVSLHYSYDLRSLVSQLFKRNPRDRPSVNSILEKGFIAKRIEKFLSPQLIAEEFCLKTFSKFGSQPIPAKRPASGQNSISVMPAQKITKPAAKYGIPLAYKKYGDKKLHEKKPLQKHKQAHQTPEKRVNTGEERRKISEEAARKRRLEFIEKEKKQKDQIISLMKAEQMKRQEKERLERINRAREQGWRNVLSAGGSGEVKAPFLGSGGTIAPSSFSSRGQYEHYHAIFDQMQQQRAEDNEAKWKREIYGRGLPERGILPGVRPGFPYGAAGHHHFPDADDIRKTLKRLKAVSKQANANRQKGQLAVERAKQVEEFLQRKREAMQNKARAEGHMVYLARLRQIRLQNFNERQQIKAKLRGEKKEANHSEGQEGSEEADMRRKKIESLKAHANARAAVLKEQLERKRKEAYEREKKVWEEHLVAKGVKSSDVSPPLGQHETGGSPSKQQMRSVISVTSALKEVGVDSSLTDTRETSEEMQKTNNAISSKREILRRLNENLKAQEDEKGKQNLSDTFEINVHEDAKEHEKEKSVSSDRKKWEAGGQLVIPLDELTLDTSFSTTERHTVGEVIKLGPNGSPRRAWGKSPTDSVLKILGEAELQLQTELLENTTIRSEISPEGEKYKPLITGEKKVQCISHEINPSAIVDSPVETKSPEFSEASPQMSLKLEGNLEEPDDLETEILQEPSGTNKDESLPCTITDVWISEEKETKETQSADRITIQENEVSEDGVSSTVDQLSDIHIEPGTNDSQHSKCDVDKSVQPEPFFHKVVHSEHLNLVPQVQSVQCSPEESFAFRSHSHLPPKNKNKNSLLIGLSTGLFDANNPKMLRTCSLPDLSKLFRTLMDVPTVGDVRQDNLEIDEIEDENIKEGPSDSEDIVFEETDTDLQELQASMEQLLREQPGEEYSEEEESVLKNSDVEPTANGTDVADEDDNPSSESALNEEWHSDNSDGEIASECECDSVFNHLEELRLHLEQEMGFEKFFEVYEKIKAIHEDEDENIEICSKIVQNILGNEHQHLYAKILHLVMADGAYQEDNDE
Kind of assay: Selectivity interaction (KinomeScan (DiscoverX)) EUB0000666a NEK1. Conditions: at 10 µM.

Assay [5] deals with Calcium/calmodulin-dependent protein kinase type II subunit delta (Homo sapiens) (UniProt Q13557). The assay is described as follows: Selectivity interaction (Kinase panel (Z-LYTE Assay)) EUB0001632a CAMK2D. To be noted: at 10 µM.
Calcium/calmodulin-dependent protein kinase type II subunit delta (Homo sapiens), sequence (Q13557 whole entry): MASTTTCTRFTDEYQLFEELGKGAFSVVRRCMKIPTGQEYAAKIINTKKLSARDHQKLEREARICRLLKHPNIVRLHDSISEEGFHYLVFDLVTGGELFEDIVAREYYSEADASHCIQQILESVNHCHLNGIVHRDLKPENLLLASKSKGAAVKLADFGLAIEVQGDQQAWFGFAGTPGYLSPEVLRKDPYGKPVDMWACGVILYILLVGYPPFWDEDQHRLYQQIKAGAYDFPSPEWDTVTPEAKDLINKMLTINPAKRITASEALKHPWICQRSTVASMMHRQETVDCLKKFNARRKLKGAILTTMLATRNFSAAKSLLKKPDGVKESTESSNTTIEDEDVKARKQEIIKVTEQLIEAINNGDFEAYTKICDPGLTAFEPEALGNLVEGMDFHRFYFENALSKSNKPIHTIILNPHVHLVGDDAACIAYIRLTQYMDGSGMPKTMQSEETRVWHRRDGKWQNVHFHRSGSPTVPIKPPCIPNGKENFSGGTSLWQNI
In assay [6] the target is T2, Serine/threonine-protein kinase D2 (Homo sapiens) (UniProt Q9BZL6).
T2 sequence (whole entry): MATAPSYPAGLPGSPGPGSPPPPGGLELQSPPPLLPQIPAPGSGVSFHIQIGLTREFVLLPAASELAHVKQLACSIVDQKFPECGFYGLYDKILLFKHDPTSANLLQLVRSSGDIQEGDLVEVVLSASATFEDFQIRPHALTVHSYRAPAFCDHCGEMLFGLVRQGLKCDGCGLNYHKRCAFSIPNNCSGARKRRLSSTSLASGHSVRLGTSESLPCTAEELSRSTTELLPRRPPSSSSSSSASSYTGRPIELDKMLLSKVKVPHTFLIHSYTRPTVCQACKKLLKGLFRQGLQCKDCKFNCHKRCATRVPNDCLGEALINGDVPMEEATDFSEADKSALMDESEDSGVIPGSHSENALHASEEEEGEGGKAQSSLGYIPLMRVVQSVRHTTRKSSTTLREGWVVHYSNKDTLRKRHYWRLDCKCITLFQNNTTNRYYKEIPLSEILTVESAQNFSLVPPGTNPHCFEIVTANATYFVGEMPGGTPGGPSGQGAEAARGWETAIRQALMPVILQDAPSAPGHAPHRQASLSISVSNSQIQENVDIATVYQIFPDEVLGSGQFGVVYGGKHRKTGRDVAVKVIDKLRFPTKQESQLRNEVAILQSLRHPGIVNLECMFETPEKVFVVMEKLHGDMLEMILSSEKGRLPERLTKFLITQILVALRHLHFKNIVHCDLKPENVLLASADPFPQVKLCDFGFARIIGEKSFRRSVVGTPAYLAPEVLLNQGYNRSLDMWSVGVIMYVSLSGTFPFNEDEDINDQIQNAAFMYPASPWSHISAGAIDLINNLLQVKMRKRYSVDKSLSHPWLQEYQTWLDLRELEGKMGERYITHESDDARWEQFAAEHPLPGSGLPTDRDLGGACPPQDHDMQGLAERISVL
Kind of assay: Selectivity interaction (KinomeScan (DiscoverX)) EUB0000607a PRKD2. Conditions: at 10 µM.

The target in assay [7] is Serine/threonine-protein kinase 35 (Homo sapiens) (UniProt Q8TDR2). Kind of assay: Selectivity interaction (KinomeScan (DiscoverX)) EUB0000229b STK35. Conditions: at 10 µM.
Serine/threonine-protein kinase 35 (Homo sapiens), sequence (Q8TDR2 whole entry): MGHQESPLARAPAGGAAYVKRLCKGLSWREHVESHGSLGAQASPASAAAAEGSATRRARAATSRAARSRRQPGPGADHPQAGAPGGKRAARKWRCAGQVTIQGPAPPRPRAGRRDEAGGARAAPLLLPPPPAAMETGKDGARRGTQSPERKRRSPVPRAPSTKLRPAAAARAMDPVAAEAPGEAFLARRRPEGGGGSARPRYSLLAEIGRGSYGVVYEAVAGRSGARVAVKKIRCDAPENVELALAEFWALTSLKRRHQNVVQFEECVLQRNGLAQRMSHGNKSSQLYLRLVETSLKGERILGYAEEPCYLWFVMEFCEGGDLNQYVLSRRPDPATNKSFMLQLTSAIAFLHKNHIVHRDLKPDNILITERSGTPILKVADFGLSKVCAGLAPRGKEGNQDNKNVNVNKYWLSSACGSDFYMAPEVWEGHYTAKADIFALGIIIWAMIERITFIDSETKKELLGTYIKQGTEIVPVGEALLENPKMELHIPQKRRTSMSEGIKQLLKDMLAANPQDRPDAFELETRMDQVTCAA

Mitogen-activated protein kinase kinase kinase 14 (Homo sapiens), sequence (Q99558 whole entry, looked up): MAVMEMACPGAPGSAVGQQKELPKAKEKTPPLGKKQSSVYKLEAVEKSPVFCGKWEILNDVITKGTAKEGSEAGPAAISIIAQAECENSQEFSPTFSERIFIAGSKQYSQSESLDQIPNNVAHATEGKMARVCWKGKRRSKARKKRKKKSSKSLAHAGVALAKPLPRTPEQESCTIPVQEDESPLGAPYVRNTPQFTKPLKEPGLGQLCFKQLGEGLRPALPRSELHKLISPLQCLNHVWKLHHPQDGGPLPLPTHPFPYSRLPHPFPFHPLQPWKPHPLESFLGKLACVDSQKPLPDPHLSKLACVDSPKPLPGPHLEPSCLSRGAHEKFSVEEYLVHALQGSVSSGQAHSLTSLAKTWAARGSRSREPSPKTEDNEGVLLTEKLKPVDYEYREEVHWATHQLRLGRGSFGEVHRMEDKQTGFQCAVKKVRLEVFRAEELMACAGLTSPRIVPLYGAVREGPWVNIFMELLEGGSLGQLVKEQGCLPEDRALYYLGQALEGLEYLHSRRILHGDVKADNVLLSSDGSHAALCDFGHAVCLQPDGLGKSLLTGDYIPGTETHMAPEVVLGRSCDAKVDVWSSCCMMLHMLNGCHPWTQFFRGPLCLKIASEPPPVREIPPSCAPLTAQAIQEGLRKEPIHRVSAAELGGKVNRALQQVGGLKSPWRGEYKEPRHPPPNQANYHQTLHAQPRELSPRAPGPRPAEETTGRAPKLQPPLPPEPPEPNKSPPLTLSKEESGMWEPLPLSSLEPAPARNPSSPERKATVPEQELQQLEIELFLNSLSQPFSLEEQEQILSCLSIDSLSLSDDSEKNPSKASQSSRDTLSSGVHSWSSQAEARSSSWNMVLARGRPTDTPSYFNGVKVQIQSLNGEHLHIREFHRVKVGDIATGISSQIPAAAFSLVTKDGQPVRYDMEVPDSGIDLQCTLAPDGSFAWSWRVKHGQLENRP

As for `COc1cc(Nc2nc(C)cc(-c3cnn4nc(OC)ccc34)n2)cc(C(F)(F)F)c1`, the % of control in assay [1] was 98%.

Turning to `Cc1cc(F)c(C(=O)Nc2cccc(-c3nncn3C(C)C)n2)cc1-n1cnc(C2CC2)c1`, the % of control in assay [2] is 84%.

Turning to `Cc1cc(C)cc([C@@H]2c3cc(C)ccc3NC(=O)CN2C(=O)c2ccc(Br)s2)c1`, the figures for the % of activity in assay [3] (at 1 µM) and in assay [3] (at 10 µM) were 102% and 92.7%, respectively.

For `O=C(NOC[C@H](O)CO)c1ccc(F)c(F)c1Nc1ccc(I)cc1F`, the % of control on Aurora kinase B amounted to 99%; in assay [4] it was 98%.

Regarding `Cn1cc(-n2cnc3c(NCc4nc5cc(Cl)c(Cl)cc5[nH]4)nc(N4CCOCC4)nc32)cn1`, the % of control in assay [5] was -1.23%.

Consider `CNC(=O)Nc1ccc(-c2nc(N3CC4CCC(C3)O4)c3cnn(C4CCC5(CC4)OCCO5)c3n2)cc1`, for which the % of control in assay [6] was determined as 100%.

Compound `COc1cc(N(C)c2ccnc3ccc(C(F)(F)F)cc23)cc(OC)c1OC` returned a % binding in assay [7] of 90%.
